Data set [1] concerns Mongrel dogs. The data set is described as follows: Inotropic activity in anesthetized dogs. The class given is in vivo. Conditions: dog. As for the experimental part: Mongrel dogs were anesthetized intravenously with 35 mg/Kg sodium pentobarbital and supplemented as needed. Blood pressure was measured with a Statham pressure transducer via a cannula inserted from a femoral artery into the abdominal aorta. Heart rate was recorded by a cardiotachometer from a lead II electrocardiogram. Right ventricular contractile force was recorded from a Walton-Brodie strain gauge sutured to the right ventricle following a midsternal thoracotomy. A Harvard respirator was used to ventilate the dogs with room air through an endotracheal tube. The dog was bilaterally vagotomized. Following a midline laparotomy, a cannula was sutured into the duodenum for intraduodenal administration of test compound. A femoral vein was cannulated for administration of isoproterenol. All data were recorded on a Beckman R611 Dynograph.
To assess the responsiveness of each dog, isoproterenol was given intravenously at half-log interval doses from 0.007 to 2.1 or 6.67 μg/Kg. The test compound was then administered intraduodenally, usually at a low dose of 2 mg/Kg and subsequently at higher doses of 6.32 and/or 20 mg/Kg, if necessary. In a few instances, some compounds administered intraduodenally at dose levels from 0.316 to 3.16 mg/Kg.

The subject of data set [2] is B16-BL6 melanoma cells. Briefly: Antimetastatic activity against B-16 Melanoma (B16-BL6). The class given is in vivo, mouse. Conditions: oral 5 mg/kg every other day, day 20-21, control 10, p ≤ 0.02. As for the experimental part:
(§1) Mice (female, C57B1/6, 16-18 gm) were injected intravenously with either 7.5×10^4 viable B16-BL6 or B16-F10 melanoma cells, as indicated. The mice were orally treated with vehicle or drug, starting one day after tumor cell injection, and continuing every other day until the mice were sacrificed 20-21 days after tumor cell inoculation. The number of lung metastases was determined as described above, and the results are shown in Table IV (B16-BL6) or Table V (B16-F10).

The test system of data set [3] is rat heart phosphodiesterase. The data set is described as follows: Cyclic AMP phosphodiesterase inhibition (rat heart). The class given is biochemical. As for the experimental part:
(§2) The inhibition of cyclic AMP phosphodiesterase activity by the subject compounds was assayed by the method of Filburn and Karn, Analyt. Biochem., 52:505-516 (1973), using 1 μM cyclic AMP as the substrate. Human platelet cyclic AMP phosphodiesterase was obtained from human donors. Platelets were isolated and washed by centrifugation, the membranes ruptured by a sequential freeze-thaw procedure and hypotonic lysis and the soluble enzyme isolated by high speed centrifugation. The enzyme was stored in aliquots at -20° C.
(§3) This table contains the IC50 values for human platelet phosphodiesterase and IC25 values for rat heart phosphodiesterase.

Data set [4] has as its system B16-F10 melanoma cells. Briefly: Antimetastatic activity against B-16 Melanoma (B16-F10). The class given is in vivo, mouse. As to conditions: oral 5 mg/kg every other day, day 20-21, control 23, p ≤ 0.01. How it is done:
as §1

Data set [5] in a line: Acute and delayed toxicity in mice. As to conditions: mouse, in vivo, mice, aqueous suspension (polysorbate 80). The class given is in vivo. How it is done:
(§4) Three groups of three male mice (Sim:(ICR)fBR) in a weight range of 20 to 24 grams were used in this study. N-cyclohexyl-N-methyl-4-(2-oxo-1,2,3,5-tetrahydroimidazo[2,1-b]quinazolin- 7-yl)oxy-butyramide was administered intraperitoneally as an aqueous suspension (polysorbate 80).
(§5) When the test compound was administered orally, also as an aqueous suspension (polysorbate 80), the results are as follows: […]

The test system of data set [6] is male mice (Sim:(ICR)fBR). The data set is described as follows: Acute and delayed toxicity in mice. The class given is in vivo. Conditions: deaths/animals. How it is done: as §4, §5
Data set [7] relates to Human platelet cyclic AMP phosphodiesterase. The data set is described as follows: Cyclic AMP phosphodiesterase assay (human platelet). The class given is biochemical. As to conditions: for pIC50: human platelet phosphodiesterase, 1 μM cyclic AMP as substrate; for Relative Potency: relative to theophylline (assigned a value of 1) on human platelet phosphodiesterase. How it is done:
as §2, §3

Data set [8] deals with Lewis Lung Carcinoma. The data set is described as follows: Antimetastatic activity against Lewis Lung Carcinoma (Spontaneous Metastases). The class given is in vivo, mouse. Conditions: oral 5 mg/kg every other day, day 20-21, p < 0.05. How it is done:
Mice (female, C57B1/6, 16-18 gm) were inoculated subcutaneously between the inguinal and axillary areas with 0.2 ml of a freshly prepared tumor brei. Mice were treated orally with control vehicle (0.5% carboxymethylcellulose (CMC) or with test compound in suspension in 0.5% CMC. Treatments were initiated one day after tumor implantation, and continued every other day throughout the experiment. 20-21 days after initial implantation of the tumor, mice were sacrificed, weight of the primary tumor was determined, and the number of lung metastases was determined by counting under a disecting microscope. The results are shown in Table III.

pIC50: −log10 of the molar value. Like-named read-outs stand apart in the source and are kept apart here. A value given as a limit tells only on which side of the number the result lay.

Take `CN(C(=O)CCCOc1ccc2c(c1)CN1CC(=O)NC1=N2)C1CCCCC1` [N-cyclohexyl-N-methyl-4-(2-oxo-1,2,3,5-tetrahydroimidazo[2,1-b]quinazolin-7-yl)oxybutyramide]: the “Blood Pressure, peak effect as % of max. isoproterenol” value is given as 25% in data set [1] (intraduodenal, 2 mg/kg) and 96% in data set [1] (intraduodenal, 6.23 mg/kg). The “Heart Rate, peak effect as % of max. isoproterenol” value in data set [1] (intraduodenal, 2 mg/kg) was 30%; in data set [1] (intraduodenal, 6.23 mg/kg), 40%. Further, the “Rt. Ventricular Contractile Force, peak effect as % of max. isoproterenol” value in data set [1] (intraduodenal, 2 mg/kg) was 48%; in data set [1] (intraduodenal, 6.23 mg/kg), 44%. In addition, the “Pulmonary Metastases Median” value in data set [2] was determined as 3; in data set [4], 1.5; in data set [8] (control 28), 10.5. Besides, the “Rat Heart IC25” value in data set [3] turned out to be 260 nM. The LD50 (in general, the dose expected to kill half of the subjects tested) in data set [5] (ip, intraperitoneal, read-out: LD50 (intraperitoneal)) was > 1500 mg/kg; in data set [5] (oral, read-out: LD50 (oral)), > 1500 mg/kg. Moreover, the Death in data set [6] (intraperitoneal, 500 mg/Kg) is 0/3; in data set [6] (intraperitoneal, 1,000 mg/Kg) it was 0/3; in data set [6] (intraperitoneal, 1,500 mg/Kg), 0/3; in data set [6] (oral, 500 mg/Kg), 0/3; in data set [6] (oral, 1,000 mg/Kg), 0/3; in data set [6] (oral, 1,500 mg/Kg), 0/3. Besides, the pIC50 (in general, −log10 of the IC50, conventionally taken in molar units) in data set [7] was 7.90. Moreover, the “Relative Potency” value in data set [7] is given as 21,600. In data set [8] (± S.E., control 5.1 ± 0.4), the “Size of Primary Tumor” value was determined as 3.9 ± 0.4 gm.
Turning to `C[C@@H]1C(=O)NC2=Nc3ccc(OCCCC(=O)N(C)C4CCCCC4)cc3CN21` [N-cyclohexyl-N-methyl-4-(2-oxo-3-D-methyl-1,2,3,5-tetrahydroimidazo[2,1-b]quinazolin-7-yl)oxybutyramide], the “Blood Pressure, peak effect as % of max. isoproterenol” value in data set [1] (i.v., 0.1 mg/kg) is recorded as 82%; in data set [1] (intraduodenal, 0.316 mg/kg), 13%; in data set [1] (intraduodenal, 1.0 mg/kg), 49%; in data set [1] (intraduodenal, 3.16 mg/kg) it was 82%. Also, the “Heart Rate, peak effect as % of max. isoproterenol” value in data set [1] (i.v., 0.1 mg/kg) is 73%; in data set [1] (intraduodenal, 0.316 mg/kg) it was 18%; in data set [1] (intraduodenal, 1.0 mg/kg) it was 48%; in data set [1] (intraduodenal, 3.16 mg/kg), 72%. For the same molecule, the “Rt. Ventricular Contractile Force, peak effect as % of max. isoproterenol” value in data set [1] (i.v., 0.1 mg/kg) is 43%; in data set [1] (intraduodenal, 0.316 mg/kg), 18%; in data set [1] (intraduodenal, 1.0 mg/kg) it was 50%; in data set [1] (intraduodenal, 3.16 mg/kg), 53%. Besides, in data set [3], the “Rat Heart IC25” value amounted to 27 nM. Further, the pIC50 in data set [7] was 8.27. For the same molecule, the “Relative Potency” value in data set [7] is recorded as 50,000.
Regarding `CN(C(=O)CCCOc1ccc2c(c1)CN1C(=N2)NC(=O)[C@@H]1CO)C1CCCCC1` [N-cyclohexyl-N-methyl-4-(2-oxo-3-L-hydroxymethyl-1,2,3,5-tetrahydroimidazo[2,1-b]quinazolin-7-yl)oxybutyramide], in data set [3], the “Rat Heart IC25” value is recorded as 90 nM. In data set [7], the negative-log IC50 (pIC50) was 7.56 and the “Relative Potency” value was 9,800.
For `CN(C(=O)CCCCOc1ccc2c(c1)CN1CC(=O)NC1=N2)C1CCCCC1` [N-cyclohexyl-N-methyl-5-(2-oxo-1,2,3,5-tetrahydroimidazo[2,1-b]quinazolin-7-yl)oxypentanamide], the “Rat Heart IC25” value in data set [3] is 22 nM. Moreover, in data set [7], the pIC50 was 8.34 and the “Relative Potency” value is 58,700.
Turning to `CN(C(=O)CCCCCOc1ccc2c(c1)CN1CC(=O)NC1=N2)C1CCCCC1` [N-cyclohexyl-N-methyl-6-(2-oxo-1,2,3,5-tetrahydroimidazo[2,1-b]quinazolin-7-yl)oxyhexanamide], in data set [3], the “Rat Heart IC25” value was determined as 21 nM. Further, in data set [7], the pIC50 was 7.92 and the “Relative Potency” value is on record as 22,500.
The like results for `CN(C(=O)CCCCCCOc1ccc2c(c1)CN1CC(=O)NC1=N2)C1CCCCC1` [N-cyclohexyl-N-methyl-7-(2-oxo-1,2,3,5-tetrahydroimidazo[2,1-b]quinazolin-7-yl)oxyheptanamide] were, in that order, 45 nM, 7.80 and 16,800.
The corresponding values for `CN(C(=O)CCCOc1ccc2c(c1)CN1CC(=O)NC1=N2)C(c1ccccc1)c1ccccc1` [N-diphenylmethyl-N-methyl-4-(2-oxo-1,2,3,5-tetrahydroimidazo[2,1-b]quinazolin-7-yl)oxybutyramide] are 60 nM, 7.82 and 18,000.
